Holding throughout (test): NCI anticancer screen, dose series, 48 h
Test [1] deals with TK-10 renal.
Test [2] deals with UACC-62 melanoma.
The subject of test [3] is HCT-15 colon.
For test [4], the system named is NCI-H460 lung.
Test [5] has as its system SNB-75 CNS.
Test [6] concerns ACHN renal.
The test system of test [7] is RXF 393 renal.
Test [8] deals with KM12 colon.
In test [9] the test system is A549 NSCLC.
For test [10], the system named is MALME-3M melanoma.

These results are taken from PubChem BioAssay (NCI).

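Tested at 5 concentrations; 48 h exposure; 96-well plates; endpoints linearly interpolated, else capped at highest concentration. GI50 is the concentration that inhibits growth by half. TGI denotes the concentration required for complete inhibition of growth.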

Consider `Cc1nc(C)c(C(=O)Nc2cccc3c2C(=O)NC3=O)cc1C(=O)Nc1cccc2c1C(=O)NC2=O`, for which the TGI in [1], in [2], in [3], in test [4], in test [5] and in [6] was > 100 µM throughout. In addition, the TGI in test [7], in [8], in test [9] and in test [10] was > 100 µM throughout.
As for `COc1ccc(-c2oc(=O)ccc2C#Cc2cc(OC)c(OC)c(OC)c2)cc1O`, the GI50 is 83.9 µM in test [1]; 13.5 µM in [2]; 26.3 µM in [3]; 15.7 µM in [4]; 20.8 µM in [5]; 11.6 µM in test [6]. Also, the GI50 in test [7] is 10.9 µM; in test [8], 50 µM; in test [9], 39.5 µM; in test [10] it was 71.8 µM. Besides, the TGI was > 100 µM in test [1]; 63.5 µM in test [2]; > 100 µM in test [3]; 62.9 µM in [4]; 69.9 µM in test [5]; 44.3 µM in [6]. For the same compound, the TGI in [7] is 31.9 µM; in test [8] it was > 100 µM; in test [9] it was > 100 µM; in [10], > 100 µM.
Take `O=C1NC(=O)/C(=C/C=C/c2ccccc2)S1`: the GI50 in test [1] was 28.6 µM; in [2] it was 0.49 µM; in test [3], 9.3 µM; in test [4], 2.83 µM; in [5], 5.25 µM; in [6] it was 0.655 µM. Besides, the GI50 was 4.95 µM in test [7], 8.25 µM in [8], 11.1 µM in test [9] and 12.3 µM in [10]. The TGI was > 100 µM in [1]; 27 µM in [2]; 51.7 µM in test [3]; 13.8 µM in test [4]; 40.3 µM in test [5]; > 37 µM in test [6]. Moreover, the TGI was 27.8 µM in test [7], 21.8 µM in [8], > 100 µM in test [9] and > 82.4 µM in test [10].
With `Cn1nc(C(F)(F)F)c(-c2ccc(Cl)c(C(F)(F)F)c2)c1-c1ccc(OCc2ccc(Cl)cc2)cc1O`, the GI50 in test [1] is 1.91 µM; in test [2] it was 1.58 µM; in [3], 1.6 µM; in [4] it was 1.71 µM; in [5] it was 1.45 µM; in [6] it was 1.61 µM. Besides, the GI50 in test [7] was 1.41 µM; in test [8], 1.6 µM; in test [9], 1.66 µM; in test [10], 1.39 µM. Further, the TGI came out at 7.13 µM in test [1]; 5.8 µM in test [2]; 6 µM in test [3]; 5.64 µM in test [4]; 7.54 µM in [5]; 5.03 µM in [6]. In addition, the TGI in [7] turned out to be 4.32 µM; in test [8], 5.91 µM; in [9], 6.16 µM; in test [10], 4.96 µM.
For `C=C1CCC2C3(C)COC(c4ccc(NC(C)=O)cc4)OC3CCC2(C)C1C/C=C1/C(=O)OCC1O` (stereo not given), the GI50 is 6.25 µM in test [1]; > 100 µM in test [2]; 9.58 µM in test [3]; 4.71 µM in test [4]; > 100 µM in test [5]; 7.63 µM in test [6]. The GI50 was 46.9 µM in [7], 5.07 µM in test [8], 5.03 µM in test [9] and 5.96 µM in [10]. Moreover, the TGI in [1], in [2], in test [3], in [4], in [5] and in test [6] was > 100 µM each time. The TGI in test [7], in test [8], in test [9] and in [10] was > 100 µM in each case.
For the compound `CC#C[C@@]1(O)CCCC[C@@H]1O`, the TGI in [1], in test [2], in test [3], in [4], in test [5] and in test [6] was > 100 µM in each case. The TGI in test [7], in test [8], in test [9] and in test [10] was > 100 µM each time.
Regarding `COc1ccc2c(c1)CCC1C2CC[C@@]2(C)C1CC[C@@]2(O)CNC(=O)/C=C/c1ccc(O)c(OC)c1` (stereo not given in full), the GI50 in [1] is 6.86 µM; in test [2], 12.1 µM; in [3], 11.5 µM; in [4] it was 4.02 µM; in test [5] it was 26.6 µM; in test [6], 17.5 µM. The GI50 is 21.1 µM in [7], 4.77 µM in test [8], 22.3 µM in test [9] and 21.3 µM in [10]. In addition, the TGI is > 100 µM in test [1]; 34.9 µM in test [2]; 33.1 µM in test [3]; > 100 µM in test [4]; > 100 µM in test [5]; 46.7 µM in test [6]. The TGI in test [7] was 78.6 µM; in test [8], > 100 µM; in test [9] it was > 100 µM; in test [10] it was > 100 µM.
With `CCC1C(C)c2c([nH]c3ccccc23)C2C(=O)N(c3ccccc3)C(=O)C21` (stereo not given), the TGI came out at 89.2 µM in test [1]; 21.9 µM in test [2]; 31.2 µM in [3]; 28.2 µM in test [4]; 39.4 µM in test [5]; 66.5 µM in test [6]. The TGI in [7] amounted to 26 µM; in test [8], 32.1 µM; in [9] it was 48.5 µM; in test [10], 30.4 µM.
